Legend:
human SGLT5 = biological target: T1, human SGLT5 (Homo sapiens, UniProt A0PJK1); test: Radioactive uptake assay (saturation kinetics) in HEK293T cells stably overexpressing human SGLT5-iso2; type: cell-based; conditions: for hSGLT5 Vmax: transport of the labelled substrate, Fig. 2B
T1 construct: expressed in transfected cells
T1 sequence (A0PJK1 1-596): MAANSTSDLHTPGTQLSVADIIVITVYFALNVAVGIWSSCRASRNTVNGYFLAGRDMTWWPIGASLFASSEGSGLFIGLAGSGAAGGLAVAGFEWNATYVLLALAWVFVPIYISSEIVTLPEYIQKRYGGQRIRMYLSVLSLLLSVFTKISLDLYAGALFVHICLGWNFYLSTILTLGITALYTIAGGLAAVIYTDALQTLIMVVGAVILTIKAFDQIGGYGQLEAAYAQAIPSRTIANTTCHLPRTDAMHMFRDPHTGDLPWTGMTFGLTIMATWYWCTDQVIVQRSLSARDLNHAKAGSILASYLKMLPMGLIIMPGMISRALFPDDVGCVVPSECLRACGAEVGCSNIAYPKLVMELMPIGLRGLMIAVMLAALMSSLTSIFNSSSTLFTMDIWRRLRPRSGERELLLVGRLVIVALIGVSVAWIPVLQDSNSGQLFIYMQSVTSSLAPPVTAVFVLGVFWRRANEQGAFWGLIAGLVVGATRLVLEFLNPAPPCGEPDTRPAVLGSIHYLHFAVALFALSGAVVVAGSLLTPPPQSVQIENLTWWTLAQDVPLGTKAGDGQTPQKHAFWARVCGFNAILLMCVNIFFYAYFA
Description: This assay was used to study (1) the transport of 1,5-AG or mannose by the HEK293T model cell lines that stably overexpressed the various transporters or by the transiently transfected HEK293T cells using JetPEI® as a transfection agent prepared as described above and (2) the substrate specificity of each transporter.
For a typical transporter experiment we proceeded as follows. […] To minimize cell loss during the various washing steps in the radioactive uptake experiments, the wells where the cells were seeded were previously coated with poly- D-lysine, which improved their adhesion to the plastic surface of the wells. For this, each well of the 24-well plates was treated with 200 µl of a 0.01% poly-L-lysine solution for 10 min, washed 3 times with 1 ml of sterilized water and left to dry for 2 h. Only then could the 24-well plates be seeded with the appropriate cell lines and cultured overnight at 37 °C in 5% CO2.
On day two, the radioactive uptake assay could be performed. The cell culture media was removed by aspiration and cells were incubated for 20 min at 37 °C and 5% CO2 with a basal medium (10 mM HEPES, pH 7.4, 1 mM CaCl2, 1 mM MgCl2, 2 mM KCl) containing 140 mM choline chloride to deplete intracellular […] ions. This was subsequently replaced with the uptake medium (basal medium + 140 mM NaCl, 25 μM cytochalasin B, 1 mg/ml BSA) containing either radioactive U-[^14C]-mannose (15,000 cpm/well) or 2-[^3H]-1,5-AG (30,000 cpm/well) and respectively, non-radioactive mannose or 1,5-AG, at the required concentration in the experiment. […]
Once the uptake medium was added to the cells, the plates were incubated at 37 °C in 5% CO2 during the required time. […] In each experiment, the transport activities were calculated after subtracting a “blank” value, corresponding to the radioactivity in the appropriate control cells (HEK293T cells that were stably or transiently transfected with one of the parent plasmids pEF6/MycHisA, pEF6HisB, pUB82 or pUB83 with no inserted cDNA) that were analyzed in parallel.

[1] = biological target: T2, SGLT5-TM (S70N–E71I–L75H) (Homo sapiens, UniProt A0PJK1, E71I/L75H/S70N); test: Inhibition of 10 µM 1,5-AG transport by triple mutant SGLT5-TM (S70N-E71I-L75H); type: cell-based
T2 construct: pUB83-hSGLT5-iso2 as well as the various SGLT5 mutants obtained were used to transduce HEK293T cells; expressed in transfected cells; host or cells: HEK293T, lentiviral transduction (pUB83)
T2 sequence (A0PJK1 whole entry S70N/E71I/L75H): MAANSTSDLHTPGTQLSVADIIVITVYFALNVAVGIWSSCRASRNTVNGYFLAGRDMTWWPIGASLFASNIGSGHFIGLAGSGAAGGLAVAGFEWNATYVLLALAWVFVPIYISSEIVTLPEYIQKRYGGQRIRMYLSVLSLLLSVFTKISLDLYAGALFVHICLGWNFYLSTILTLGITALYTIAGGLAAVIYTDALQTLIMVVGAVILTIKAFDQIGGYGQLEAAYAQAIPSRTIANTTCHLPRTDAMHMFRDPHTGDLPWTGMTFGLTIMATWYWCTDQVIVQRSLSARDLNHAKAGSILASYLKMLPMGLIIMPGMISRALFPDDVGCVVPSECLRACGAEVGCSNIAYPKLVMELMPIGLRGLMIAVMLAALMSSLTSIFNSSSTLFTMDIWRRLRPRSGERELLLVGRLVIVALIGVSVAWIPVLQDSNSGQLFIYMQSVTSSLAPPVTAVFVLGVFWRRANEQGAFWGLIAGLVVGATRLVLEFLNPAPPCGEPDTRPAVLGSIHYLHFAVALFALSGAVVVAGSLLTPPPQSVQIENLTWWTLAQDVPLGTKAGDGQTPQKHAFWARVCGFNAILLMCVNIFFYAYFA
Experimental: The transport experiments to study the specificity of SGLT4 or SGLT5, were performed in the presence of 10 µM U-[^14C + ^12C]-mannose (for SGLT4) or 2-[^3H + ^1H]-1,5-AG (for SGLT5) and increasing concentrations of various sugars tested. The transport experiments to study the inhibition of empagliflozin, dapagliflozin or remogliflozin, on the transport of 1,5-AG by SGLT5 or its variants were performed in the presence of 10 µM 2-[^3H + ^1H]-1,5-AG and increasing concentrations of the various gliflozins tested.
SGLT5 mutants were created using the quick-change site directed mutagenesis method that enables effective mutagenesis without subcloning of the amplified PCR products. Complementary primer pairs carrying the desired replacements (Supplementary Table 3) were designed using an online tool (https://www.agilent.com/store/primerDesignProgram.jsp). The PCR protocol was carried out following the manufacturer instructions regarding the KOD HOT Start polymerase kit (TOYOBO™, Novagen). The amplified DNA was cleaned-up from the reactions constituents using the GeneJET PCR purification Kit (Thermo Scientific™) and the size of the DNA fragment were verified by DNA agarose-gel electrophoresis. After eliminating the parental DNA by digesting the purified DNA with the DpnI restriction enzyme, the DNA fragments containing the appropriate changes were transformed in E. coli NEB Turbo competent cells (C2984H). Once colonies were obtained, plasmid DNA was finally amplified, purified and sequenced to verify that the required changes had been introduced and eliminate any PCR errors. Next, pUB83-hSGLT5-iso2 as well as the various SGLT5 mutants obtained were used to transduce HEK293T cells using the exact same protocol as described above to create model cell lines overexpressing the different SGLT5 transporters.
Supplementary Fig. 7: Substrate specificity of SGLT5 - impact of replacing specific and conserved substrate binding residues in human SGLT5 by the equivalent ones in […]
When shown, the IC50 values are derived from inhibition curves showing the transport activity of 1,5-AG by the indicated SGLT5 mutants. Values show the concentration needed of the various sugars to inhibit by 50% the transport activity of 10 µM 2-[1H+3H]-1,5-AG. When the inhibition was too weak to derive IC50 values, the inhibition of the transport of 1,5-AG with the indicated concentration of the inhibitor-sugar is shown. Of note, despite having a lower […]
µM). These apparently contradictory changes are not necessarily surprising: in the case of enzymes, there are multiple examples of mutations that, at the same time, increase the apparent affinity (decrease the Km) of an enzyme for its substrate while decreasing the Vmax.
Measurement of transport activities and the description of the structures of the various inhibitory sugars used are as in Fig. 3C. Data corresponds to n = 3 in at least 2 independent […]
(1 picture or pasted object on this page, not shown here)

SMILES | Vmax (human SGLT5; hSGLT5 WT, Table 1 experiments) | hSGLT5 Vmax (human SGLT5) | IC50 for 1,5-AG lower than the IC50 for SGLT5-WT ([1]; 33 µM versus 162 µM) | inhibition of SGLT5-TM ([1]; competition experiments, Supplementary Fig. 7) | loss of affinity of SGLT5-TM ([1]; versus wild-type SGLT5, competition experiments, Supplementary Fig. 7)
OC[C@H]1OC[C@H](O)[C@@H](O)[C@@H]1O [1,5-AG, 1,5-anhydroglucitol] | 17.3 ± 0.3 pmol/min/10^5cells | 14.1 ± 0.8 pmol/min/10^5 cells | 5 fold | still being inhibited | 
OC[C@H]1OC(O)[C@@H](O)[C@@H](O)[C@@H]1O (stereo partly drawn) [Mannose, mannose] |  | 44.7 ± 12.4 pmol/min/10^5 cells |  |  | tenfold

— publication PMC10439028, “SGLT5 is the renal transporter for 1,5-anhydroglucitol, a major player in two rare forms of neutropenia” (Cellular and Molecular Life Sciences: CMLS, 2023)
